The nature of the assay: Inhibition of rate of ADP-stimulated gel-filtered human platelet aggregation mediated by integrin alphaIIb beta-3 in PLAGGIN assay.

Data on eight compounds can be found in BindingDB's records for doi:10.1016/s0960-894x(01)00687-4 (Merck Research Laboratories, 2001).

Broadly, the IC50 is the point on the concentration scale where inhibition reaches its midpoint. A lower IC50 goes with higher potency.

`O=C(O)C[C@H](NC(=O)CN1CCCC(CCc2ccc3c(n2)NCCC3)C1=O)c1cccnc1` (stereo partly drawn) [3-(2-{2-Oxo-3-[2-(5,6,7,8-tetrahydro-[1,8]naphthyridin-2-yl)-ethyl]-piperidin-1-yl}-acetylamino)-3-(S)-pyridin-3-yl-propionic acid]: the concentration for half-maximal inhibition (IC50) is more than 10 µM.

In turn, `O=C(O)C[C@H](NC(=O)CN1CC[C@@H](CCc2ccc3c(n2)NCCC3)C1=O)c1cccnc1` [(S)-3-(2-{(R)-2-Oxo-3-[2-(5,6,7,8-tetrahydro-[1,8]naphthyridin-2-yl)-ethyl]-pyrrolidin-1-yl}-acetylamino)-3-pyridin-3-yl-propionic acid] returned an IC50 of more than 10 µM.

`C#C[C@H](CC(=O)O)NC(=O)CN1CC[C@H](CCc2ccc3c(n2)NCCC3)C1=O` [(S)-3-(2-{(S)-2-Oxo-3-[2-(5,6,7,8-tetrahydro-[1,8]naphthyridin-2-yl)-ethyl]-pyrrolidin-1-yl}-acetylamino)-pent-4-ynoic acid] had an IC50 of more than 10 µM.

The compound `O=C(O)C[C@H](NC(=O)CN1CC[C@H](CCc2ccc3c(n2)NCCC3)C1=O)c1cccnc1` [3-(2-{(S)-2-Oxo-3-[2-(5,6,7,8-tetrahydro-[1,8]naphthyridin-2-yl)-ethyl]-pyrrolidin-1-yl}-acetylamino)-3-(S)-pyridin-3-yl-propionic acid] came in with an IC50 of more than 10 µM.

For the compound `O=C(O)C[C@H](NC(=O)CNC(=O)CCCc1ccc2c(n1)NCCC2)c1cccnc1` [(S)-3-Pyridin-3-yl-3-[2-(4-5,6,7,8-tetrahydro-[1,8]naphthyridin-2-yl-butyrylamino)-acetylamino]-propionic acid], the IC50 was more than 10 µM.

On to `C#C[C@H](CC(=O)O)NC(=O)CNC(=O)CCCc1ccc2c(n1)NCCC2` [(S)-3-[2-(4-5,6,7,8-Tetrahydro-[1,8]naphthyridin-2-yl-butyrylamino)-acetylamino]-pent-4-ynoic acid], for which the IC50 is more than 10 µM.

Take `O=C(O)CCNC(=O)CNC(=O)CCCc1ccc2c(n1)NCCC2` [3-[2-(4-5,6,7,8-Tetrahydro-[1,8]naphthyridin-2-yl-butyrylamino)-acetylamino]-propionic acid]: the IC50 was more than 10 µM.

The compound `O=C(O)C[C@H](NC(=O)CN1CCN(CCc2ccc3c(n2)NCCC3)C1=O)c1cccnc1` [(S)-3-(2-{2-Oxo-3-[2-(5,6,7,8-tetrahydro-[1,8]naphthyridin-2-yl)-ethyl]-imidazolidin-1-yl}-acetylamino)-3-pyridin-3-yl-propionic acid] returned an IC50 of 7.1 µM.
